# Measurements reported in patent publication US11446282B2, “Methods of treating mixed dyslipidemia and hypertriglycertdemia” (Kowa Company, Ltd., priority 2017, dated 2022).
# System: dyslipidemic patients with renal impairment
# Test: Example 3 phase III 52-week trial: cholesterol in lipoprotein subclasses by HPLC
# Type: in vivo, human
# Details: 0.2 (0.4) mg/day
# Procedure: This was a multicenter, single-arm, open-label, phase III trial. The inclusion criteria were as follows: (1) patients with dyslipidemia aged >20 years at the time of informed consent; (2) men and postmenopausal women; (3) fasting serum TG≥1.70 mmol/L (150 mg/dL) at two consecutive measurements during screening; and (4) patients who followed dietary and physical exercise guidance for >12 weeks before enrollment.
# The major exclusion criteria were as follows: (1) patients with fasting serum TG≥5.65 mmol/L (500 mg/dL) during screening; (2) patients with poorly controlled diabetes mellitus (hemoglobin A1c [HbA1c]≥10.5%); (3) patients with concurrent poorly controlled thyroid disease; (4) men with serum creatinine ≥2.5 mg/dL and women with serum creatinine ≥2.0 mg/dL during screening who were already on statin therapy; (5) patients with eGFR<45 mL/min/1.73 m^2 during screening who were already on statin therapy; (6) patients with CK>5ULN (270 IU/L for men, 150 IU/L for women) during screening who were already on statin therapy; (7) patients with serious liver disease (cirrhosis Child-Pugh Class B or higher); (8) patients with gallstones or serious biliary tract disease; (9) patients who had suffered an acute myocardial infarction or stroke within three months before informed consent; and (10) patients with New York Heart Association class III or IV heart failure.
# During the screening period (8 weeks prior to treatment initiation), tests were performed twice to determine patient eligibility. Thereafter, eligible patients orally received pemafibrate 0.2 mg/day (twice daily) for 52 weeks. From week 12 of the treatment period onwards, the investigators were instructed that the dose could be increased from 0.2 mg/day to 0.4 mg/day (twice daily) if there was an inadequate response to the initial dose based on fasting serum TG levels ≥1.70 mmol/L (150 mg/dL). Fasting blood and urine samples were collected at each visit. Blood and urine sample in patients with hemodialysis were collected just before dialysis. LDL-C levels were measured using the direct method. […]
# The primary efficacy endpoint was the percent change in fasting serum TG from baseline to the last evaluation point. The primary safety endpoints were the incidence of an AE or ADR occurring after drug administration during the study. Secondary efficacy endpoints included percent changes in lipid variables and changes in inflammation variables at week 52 [using the last-observation-carried-forward (LOCF)]. Secondary safety endpoints included changes in the levels of aspartate aminotransferase (AST), ALT, -GT, ALP, serum creatinine, eGFR, and CK at week 52. Each baseline value was defined as (1) the mean of the corresponding values in the first and second tests at the screening examination and at week 0 of the treatment period for fasting serum TG, HDL-C, total cholesterol (TC), LDL-C, and non-HDL-C; and (2) the value at week 0 of the treatment period for the other secondary variables.
# The numbers of patients with AEs and ADRs and the incidences of AEs and ADRs were calculated in the analysis of primary safety endpoints. For the secondary efficacy endpoints, one-sample t-tests or Wilcoxon signed-rank tests [for high-sensitivity C-reactive protein (hsCRP) and IL-1] were performed. The secondary safety endpoints were analyzed with Wilcoxon signed-rank tests. A two-sided significance level of 0.05 was used. SAS v. 9.3 (SAS Institute Inc., Cary, N.C., USA) was used for these analyses. Where indicated, the data are expressed as means±standard deviation (SD).
smiles,measurement,setting,value
"CC[C@@H](Oc1cccc(CN(CCCOc2ccc(OC)cc2)c2nc3ccccc3o2)c1)C(=O)O [Pemafibrate, (2R)-2-[3-({1,3-benzoxazol-2-yl[3-(4-methoxyphenoxy)propyl]amino}methyl)phenoxy]butanoic acid]",CM-C % Change from baseline at Week 52 (LOCF),All Participants,−64.3%
same,CM-C Week 52 (LOCF),All Participants,0.039 mmol/L
same,Large HDL-C % Change from baseline at Week 52 (LOCF),All Participants,−9.2%
same,Large HDL-C Week 52 (LOCF),All Participants,0.115 mmol/L
same,Large LDL-C % Change from baseline at Week 52 (LOCF),All Participants,63.1%
same,Large LDL-C Week 52 (LOCF),All Participants,0.748 mmol/L
same,Medium HDL-C % Change from baseline at Week 52 (LOCF),All Participants,19.3%
same,Medium HDL-C Week 52 (LOCF),All Participants,0.443 mmol/L
same,Medium LDL-C % Change from baseline at Week 52 (LOCF),All Participants,17.3%
same,Medium LDL-C Week 52 (LOCF),All Participants,1.194 mmol/L
same,Small HDL-C % Change from baseline at Week 52 (LOCF),All Participants,24.2%
same,Small HDL-C Week 52 (LOCF),All Participants,0.473 mmol/L
same,Small LDL-C % Change from baseline at Week 52 (LOCF),All Participants,−20.6%
same,Small LDL-C Week 52 (LOCF),All Participants,0.517 mmol/L
same,VLDL-C % Change from baseline at Week 52 (LOCF),All Participants,−24.9%
same,VLDL-C Week 52 (LOCF),All Participants,0.866 mmol/L
same,Very large HDL-C % Change from baseline at Week 52 (LOCF),All Participants,4.4%
same,Very large HDL-C Week 52 (LOCF),All Participants,0.048 mmol/L
same,Very small HDL-C % Change from baseline at Week 52 (LOCF),All Participants,27.9%
same,Very small HDL-C Week 52 (LOCF),All Participants,0.181 mmol/L
same,Very small LDL-C % Change from baseline at Week 52 (LOCF),All Participants,−11.6%
same,Very small LDL-C Week 52 (LOCF),All Participants,0.210 mmol/L
same,CM-C % Change from baseline at Week 52 (LOCF),eGFR G1 (≥90),−54.1%
same,CM-C Week 52 (LOCF),eGFR G1 (≥90),0.064 mmol/L
same,Large HDL-C % Change from baseline at Week 52 (LOCF),eGFR G1 (≥90),−14.1%
same,Large HDL-C Week 52 (LOCF),eGFR G1 (≥90),0.107 mmol/L
same,Large LDL-C % Change from baseline at Week 52 (LOCF),eGFR G1 (≥90),54.5%
same,Large LDL-C Week 52 (LOCF),eGFR G1 (≥90),0.724 mmol/L
same,Medium HDL-C % Change from baseline at Week 52 (LOCF),eGFR G1 (≥90),11.4%
same,Medium HDL-C Week 52 (LOCF),eGFR G1 (≥90),0.441 mmol/L
same,Medium LDL-C % Change from baseline at Week 52 (LOCF),eGFR G1 (≥90),15.5%
same,Medium LDL-C Week 52 (LOCF),eGFR G1 (≥90),1.244 mmol/L
same,Small HDL-C % Change from baseline at Week 52 (LOCF),eGFR G1 (≥90),18.1%
same,Small HDL-C Week 52 (LOCF),eGFR G1 (≥90),0.482 mmol/L
same,Small LDL-C % Change from baseline at Week 52 (LOCF),eGFR G1 (≥90),−18.0%
same,Small LDL-C Week 52 (LOCF),eGFR G1 (≥90),0.576 mmol/L
same,VLDL-C % Change from baseline at Week 52 (LOCF),eGFR G1 (≥90),−24.6%
same,VLDL-C Week 52 (LOCF),eGFR G1 (≥90),0.932 mmol/L
same,Very large HDL-C % Change from baseline at Week 52 (LOCF),eGFR G1 (≥90),0.8%
same,Very large HDL-C Week 52 (LOCF),eGFR G1 (≥90),0.047 mmol/L
same,Very small HDL-C % Change from baseline at Week 52 (LOCF),eGFR G1 (≥90),20.6%
same,Very small HDL-C Week 52 (LOCF),eGFR G1 (≥90),0.186 mmol/L
same,Very small LDL-C % Change from baseline at Week 52 (LOCF),eGFR G1 (≥90),−10.3%
same,Very small LDL-C Week 52 (LOCF),eGFR G1 (≥90),0.233 mmol/L
same,CM-C % Change from baseline at Week 52 (LOCF),eGFR G2 (≥60 and <90),−63.9%
same,CM-C Week 52 (LOCF),eGFR G2 (≥60 and <90),0.038 mmol/L
same,Large HDL-C % Change from baseline at Week 52 (LOCF),eGFR G2 (≥60 and <90),−10.9%
same,Large HDL-C Week 52 (LOCF),eGFR G2 (≥60 and <90),0.115 mmol/L
same,Large LDL-C % Change from baseline at Week 52 (LOCF),eGFR G2 (≥60 and <90),67.7%
same,Large LDL-C Week 52 (LOCF),eGFR G2 (≥60 and <90),0.765 mmol/L
same,Medium HDL-C % Change from baseline at Week 52 (LOCF),eGFR G2 (≥60 and <90),17.7%
same,Medium HDL-C Week 52 (LOCF),eGFR G2 (≥60 and <90),0.448 mmol/L
same,Medium LDL-C % Change from baseline at Week 52 (LOCF),eGFR G2 (≥60 and <90),18.7%
same,Medium LDL-C Week 52 (LOCF),eGFR G2 (≥60 and <90),1.226 mmol/L
same,Small HDL-C % Change from baseline at Week 52 (LOCF),eGFR G2 (≥60 and <90),23.6%
same,Small HDL-C Week 52 (LOCF),eGFR G2 (≥60 and <90),0.477 mmol/L
same,Small LDL-C % Change from baseline at Week 52 (LOCF),eGFR G2 (≥60 and <90),−20.6%
